Laboratory results reported in the supplement of paper PMC8671470.
Structures can show the parent of a compound that is named as a salt.

Each molecule was assayed on Mono-Mac-6 (assay: cell viability (% survival relative to DMSO control); higher = less cytotoxic). Details: drug1 concentration 100 nM; drug2 concentration 5 nM; 72 h.
Experimental: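 8x8 drug-combination matrices (0–5000 nM; rosiglitazone and lestaurtinib 0–1000 nM) were run in Mono-Mac-6 cells for 72 h with CellTiter-Glo read-out. Survival is normalised to DMSO and 10 µM bortezomib and clipped at 100%.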

Point of comparison: `CN(CCOc1ccc(Cc2sc(O)nc2O)cc1)c1ccccn1` [Rosiglitazone] + CC(C)(Cc1ccccc1)NCC(O)c1ccc(O)c(NS(C)(=O)=O)c1 [Zinterol hydrochloride], cell viability 78.7%. Against it:
- O=C(O)CC[N+](=O)[O-] [3-nitropropionic acid] + CCn1c(=Cc2cccc[n+]2CC)sc(=C2Sc3ccccc3N2C)c1=O [MKT 077] — higher, 90.2%
- CCn1c(=Cc2cccc[n+]2CC)sc(=C2Sc3ccccc3N2C)c1=O [MKT 077] + CN(C)CCNC(=O)c1cccn2c(=O)c3cc4ccccc4cc3nc12 [Bmh-21] — higher, 94.6%
- CN(CCOc1ccc(Cc2sc(O)nc2O)cc1)c1ccccn1 [Rosiglitazone] + c1cc(-c2cnn3cc(-c4ccc(OCCN5CCCCC5)cc4)cnc23)ccn1 [Dorsomorphin] — higher, 89%

Same assay, conditions: drug1 concentration 100 nM; drug2 concentration 10 nM; 72 h

Point of comparison: `CCn1c(=Cc2cccc[n+]2CC)sc(=C2Sc3ccccc3N2C)c1=O` [MKT 077] + CN(C)CCNC(=O)c1cccn2c(=O)c3cc4ccccc4cc3nc12 [Bmh-21], cell viability 90.1%. Against it:
- O=C(O)CC[N+](=O)[O-] [3-nitropropionic acid] + CCn1c(=Cc2cccc[n+]2CC)sc(=C2Sc3ccccc3N2C)c1=O [MKT 077] — higher, > 100%
- CN(CCOc1ccc(Cc2sc(O)nc2O)cc1)c1ccccn1 [Rosiglitazone] + CC(C)(Cc1ccccc1)NCC(O)c1ccc(O)c(NS(C)(=O)=O)c1 [Zinterol hydrochloride] — lower, 60.8%
- CN(CCOc1ccc(Cc2sc(O)nc2O)cc1)c1ccccn1 [Rosiglitazone] + c1cc(-c2cnn3cc(-c4ccc(OCCN5CCCCC5)cc4)cnc23)ccn1 [Dorsomorphin] — lower, 76%

Same assay, conditions: drug1 concentration 100 nM; drug2 concentration 50 nM; 72 h

Point of comparison: `CN(CCOc1ccc(Cc2sc(O)nc2O)cc1)c1ccccn1` [Rosiglitazone] + CC(C)(Cc1ccccc1)NCC(O)c1ccc(O)c(NS(C)(=O)=O)c1 [Zinterol hydrochloride], cell viability 45.8%. Against it:
- O=C(O)CC[N+](=O)[O-] [3-nitropropionic acid] + CCn1c(=Cc2cccc[n+]2CC)sc(=C2Sc3ccccc3N2C)c1=O [MKT 077] — higher, 91%
- CCn1c(=Cc2cccc[n+]2CC)sc(=C2Sc3ccccc3N2C)c1=O [MKT 077] + CN(C)CCNC(=O)c1cccn2c(=O)c3cc4ccccc4cc3nc12 [Bmh-21] — higher, > 100%
- CN(CCOc1ccc(Cc2sc(O)nc2O)cc1)c1ccccn1 [Rosiglitazone] + c1cc(-c2cnn3cc(-c4ccc(OCCN5CCCCC5)cc4)cnc23)ccn1 [Dorsomorphin] — higher, 85.6%

Same assay, conditions: drug1 concentration 100 nM; drug2 concentration 100 nM; 72 h

Point of comparison: `CN(CCOc1ccc(Cc2sc(O)nc2O)cc1)c1ccccn1` [Rosiglitazone] + c1cc(-c2cnn3cc(-c4ccc(OCCN5CCCCC5)cc4)cnc23)ccn1 [Dorsomorphin], cell viability 81.5%. Against it:
- O=C(O)CC[N+](=O)[O-] [3-nitropropionic acid] + CCn1c(=Cc2cccc[n+]2CC)sc(=C2Sc3ccccc3N2C)c1=O [MKT 077] — higher, > 100%
- CCn1c(=Cc2cccc[n+]2CC)sc(=C2Sc3ccccc3N2C)c1=O [MKT 077] + CN(C)CCNC(=O)c1cccn2c(=O)c3cc4ccccc4cc3nc12 [Bmh-21] — higher, 99.7%
- CN(CCOc1ccc(Cc2sc(O)nc2O)cc1)c1ccccn1 [Rosiglitazone] + CC(C)(Cc1ccccc1)NCC(O)c1ccc(O)c(NS(C)(=O)=O)c1 [Zinterol hydrochloride] — lower, 49.7%

Same assay, conditions: drug1 concentration 100 nM; drug2 concentration 500 nM; 72 h

Point of comparison: `CN(CCOc1ccc(Cc2sc(O)nc2O)cc1)c1ccccn1` [Rosiglitazone] + CC(C)(Cc1ccccc1)NCC(O)c1ccc(O)c(NS(C)(=O)=O)c1 [Zinterol hydrochloride], cell viability 47.9%. Against it:
- O=C(O)CC[N+](=O)[O-] [3-nitropropionic acid] + CCn1c(=Cc2cccc[n+]2CC)sc(=C2Sc3ccccc3N2C)c1=O [MKT 077] — higher, > 100%
- CCn1c(=Cc2cccc[n+]2CC)sc(=C2Sc3ccccc3N2C)c1=O [MKT 077] + CN(C)CCNC(=O)c1cccn2c(=O)c3cc4ccccc4cc3nc12 [Bmh-21] — higher, 87.7%
- CN(CCOc1ccc(Cc2sc(O)nc2O)cc1)c1ccccn1 [Rosiglitazone] + c1cc(-c2cnn3cc(-c4ccc(OCCN5CCCCC5)cc4)cnc23)ccn1 [Dorsomorphin] — higher, 53.5%

Same assay, conditions: drug1 concentration 100 nM; drug2 concentration 1000 nM; 72 h

Point of comparison: `CN(CCOc1ccc(Cc2sc(O)nc2O)cc1)c1ccccn1` [Rosiglitazone] + c1cc(-c2cnn3cc(-c4ccc(OCCN5CCCCC5)cc4)cnc23)ccn1 [Dorsomorphin], cell viability 37.7%. Against it:
- O=C(O)CC[N+](=O)[O-] [3-nitropropionic acid] + CCn1c(=Cc2cccc[n+]2CC)sc(=C2Sc3ccccc3N2C)c1=O [MKT 077] — higher, > 100%
- CCn1c(=Cc2cccc[n+]2CC)sc(=C2Sc3ccccc3N2C)c1=O [MKT 077] + CN(C)CCNC(=O)c1cccn2c(=O)c3cc4ccccc4cc3nc12 [Bmh-21] — higher, 72.8%
- CN(CCOc1ccc(Cc2sc(O)nc2O)cc1)c1ccccn1 [Rosiglitazone] + CC(C)(Cc1ccccc1)NCC(O)c1ccc(O)c(NS(C)(=O)=O)c1 [Zinterol hydrochloride] — higher, 45.4%

Same assay, conditions: drug1 concentration 100 nM; drug2 concentration 5000 nM; 72 h

Point of comparison: `CN(CCOc1ccc(Cc2sc(O)nc2O)cc1)c1ccccn1` [Rosiglitazone] + c1cc(-c2cnn3cc(-c4ccc(OCCN5CCCCC5)cc4)cnc23)ccn1 [Dorsomorphin], cell viability 12.2%. Against it:
- O=C(O)CC[N+](=O)[O-] [3-nitropropionic acid] + CCn1c(=Cc2cccc[n+]2CC)sc(=C2Sc3ccccc3N2C)c1=O [MKT 077] — higher, > 100%
- CCn1c(=Cc2cccc[n+]2CC)sc(=C2Sc3ccccc3N2C)c1=O [MKT 077] + CN(C)CCNC(=O)c1cccn2c(=O)c3cc4ccccc4cc3nc12 [Bmh-21] — higher, 64.1%
- CN(CCOc1ccc(Cc2sc(O)nc2O)cc1)c1ccccn1 [Rosiglitazone] + CC(C)(Cc1ccccc1)NCC(O)c1ccc(O)c(NS(C)(=O)=O)c1 [Zinterol hydrochloride] — higher, 49.4%

Same assay, conditions: drug1 concentration 500 nM; drug2 concentration 5 nM; 72 h

Point of comparison: `CCn1c(=Cc2cccc[n+]2CC)sc(=C2Sc3ccccc3N2C)c1=O` [MKT 077] + CN(C)CCNC(=O)c1cccn2c(=O)c3cc4ccccc4cc3nc12 [Bmh-21], cell viability 99.8%. Against it:
- O=C(O)CC[N+](=O)[O-] [3-nitropropionic acid] + CCn1c(=Cc2cccc[n+]2CC)sc(=C2Sc3ccccc3N2C)c1=O [MKT 077] — higher, > 100%
- CN(CCOc1ccc(Cc2sc(O)nc2O)cc1)c1ccccn1 [Rosiglitazone] + CC(C)(Cc1ccccc1)NCC(O)c1ccc(O)c(NS(C)(=O)=O)c1 [Zinterol hydrochloride] — lower, 27.6%
- CN(CCOc1ccc(Cc2sc(O)nc2O)cc1)c1ccccn1 [Rosiglitazone] + c1cc(-c2cnn3cc(-c4ccc(OCCN5CCCCC5)cc4)cnc23)ccn1 [Dorsomorphin] — lower, 49.2%

Same assay, conditions: drug1 concentration 500 nM; drug2 concentration 10 nM; 72 h

Point of comparison: `CN(CCOc1ccc(Cc2sc(O)nc2O)cc1)c1ccccn1` [Rosiglitazone] + CC(C)(Cc1ccccc1)NCC(O)c1ccc(O)c(NS(C)(=O)=O)c1 [Zinterol hydrochloride], cell viability 20.5%. Against it:
- O=C(O)CC[N+](=O)[O-] [3-nitropropionic acid] + CCn1c(=Cc2cccc[n+]2CC)sc(=C2Sc3ccccc3N2C)c1=O [MKT 077] — higher, > 100%
- CCn1c(=Cc2cccc[n+]2CC)sc(=C2Sc3ccccc3N2C)c1=O [MKT 077] + CN(C)CCNC(=O)c1cccn2c(=O)c3cc4ccccc4cc3nc12 [Bmh-21] — higher, > 100%
- CN(CCOc1ccc(Cc2sc(O)nc2O)cc1)c1ccccn1 [Rosiglitazone] + c1cc(-c2cnn3cc(-c4ccc(OCCN5CCCCC5)cc4)cnc23)ccn1 [Dorsomorphin] — higher, 36.1%
